Test system: normal human lung fibroblasts
Assay: mRNA expression after LPA induction, Affymetrix Human Gene ST arrays, fibroblasts (Table 4A)
Type: cell-based
Conditions: LPA-induced fibroblasts; 1 μM BMS-986020; average of 3 experiments
Protocol: Changes in gene expression after 3 hours of LPA induction were profiled on Affymetrix Human Gene ST 2.0 microarrays; differentially expressed genes identified by ANOVA with FDR <0.05 and fold-change >1.2. Process networks associated with differentially expressed genes were defined using MetaCore. Changes in secreted protein expression after 24 hours of LPA induction were profiled on an aptamer-based proteomic platform (1129 proteins); differentially expressed proteins identified by t-test.
Total RNA was isolated from normal human lung fibroblasts, human bronchial epithelial cells, and human pulmonary alveolar epithelial cells treated for […] with LPA and/or LPAR1 inhibitor. Each treatment condition was assayed in triplicate. Samples were profiled on Affymetrix Human Gene ST Arrays 1.0 and/or 2.0 after preparation using the Ambion WT Expression Kit according to manufacturers' instructions.
Data normalization and all subsequent analyses were performed in Partek Genomics Suite (Partek, St. Louis, Mo.). Data were normalized using the Robust Multi-array Average (RMA) algorithm. Differentially expressed genes were identified by ANOVA with correction for multiple comparisons with p-value with FDR<0.05. A fold-change cut-off was not strictly applied, although the majority of the differentially expressed genes identified have fold-changes greater than 1.2. Genes were included if they were statistically significant for (1) LPA-induction and (2) response to treatment with an LPAR1 inhibitor.
In Tables 1-5 The differentially expressed secreted proteins set forth in Tables 1, 2, and 5 and the differentially expressed mRNAs set forth in Table 3 and 4 were identified by visual inspection of individual dot-plots.
For the gene and protein expression analysis primary fibroblasts (NHLF product #CC-2512 from Lonza group LTD) and primary epithelial cells (NHBE Product #CC-2540 from Lonza; HPAEpiC Product #3200 from Sciencell (USA, California)) were cultured as recommended by the manufacturer, except they were cultured on collagen coated plates. As part of the induction protocol cells were starved overnight in low (0.2 or 0.1% serum) or no serum (0%), prior to stimulation with LPA.

## Cc1noc(-c2ccc(-c3ccc(C4(C(=O)O)CC4)cc3)cc2)c1NC(=O)O[C@H](C)c1ccccc1 [BMS-986020]
  Effect of 1 μM BMS-986020 relative to induced cells (fold-change), BIRC3 mRNA: −3.33 fold-change
  Effect of 1 μM BMS-986020 relative to induced cells (fold-change), CHIC2 mRNA: −2.40 fold-change
  Effect of 1 μM BMS-986020 relative to induced cells (fold-change), CNST mRNA: −2.32 fold-change
  Effect of 1 μM BMS-986020 relative to induced cells (fold-change), CTGF mRNA: −4.62 fold-change
  Effect of 1 μM BMS-986020 relative to induced cells (fold-change), CYR61 mRNA: −7.53 fold-change
  Effect of 1 μM BMS-986020 relative to induced cells (fold-change), DKK1 mRNA: −6.16 fold-change
  Effect of 1 μM BMS-986020 relative to induced cells (fold-change), DUSP1 mRNA: −2.56 fold-change
  Effect of 1 μM BMS-986020 relative to induced cells (fold-change), EFNB2 mRNA: −2.63 fold-change
  Effect of 1 μM BMS-986020 relative to induced cells (fold-change), GPR37 mRNA: −3.13 fold-change
  Effect of 1 μM BMS-986020 relative to induced cells (fold-change), HAS2 mRNA: −2.89 fold-change
  Effect of 1 μM BMS-986020 relative to induced cells (fold-change), HBEGF mRNA: −5.41 fold-change
  Effect of 1 μM BMS-986020 relative to induced cells (fold-change), IER3 mRNA: −3.28 fold-change
  Effect of 1 μM BMS-986020 relative to induced cells (fold-change), IL6 mRNA: −4.08 fold-change
  Effect of 1 μM BMS-986020 relative to induced cells (fold-change), KPRP mRNA: −3.81 fold-change
  Effect of 1 μM BMS-986020 relative to induced cells (fold-change), KRTAP1-5 mRNA: −6.89 fold-change
  Effect of 1 μM BMS-986020 relative to induced cells (fold-change), KRTAP4-12 mRNA: −3.90 fold-change
  Effect of 1 μM BMS-986020 relative to induced cells (fold-change), LIF mRNA: −5.07 fold-change
  Effect of 1 μM BMS-986020 relative to induced cells (fold-change), MCP-1/CCL2 mRNA: −5.99 fold-change
  Effect of 1 μM BMS-986020 relative to induced cells (fold-change), MIR218-1: −2.82 fold-change
  Effect of 1 μM BMS-986020 relative to induced cells (fold-change), PAI-1 mRNA: −2.43 fold-change
  Effect of 1 μM BMS-986020 relative to induced cells (fold-change), PDCD1LG2 mRNA: −2.51 fold-change
  Effect of 1 μM BMS-986020 relative to induced cells (fold-change), PTX3 mRNA: −2.49 fold-change
  Effect of 1 μM BMS-986020 relative to induced cells (fold-change), SERPINB2 mRNA: −2.64 fold-change
  Effect of 1 μM BMS-986020 relative to induced cells (fold-change), TNFAIP3 mRNA: −3.68 fold-change
  Effect of 1 μM BMS-986020 relative to induced cells (fold-change), TXNIP mRNA: 4.41 fold-change
  Effect of 1 μM BMS-986020 relative to induced cells (fold-change), UGCG mRNA: −2.52 fold-change
  Effect of 1 μM BMS-986020 relative to induced cells (fold-change), VGLL3 mRNA: −2.97 fold-change

— US20170314074A1, “LPA-ASSOCIATED PROTEIN AND RNA EXPRESSION” (Intermune, Inc., priority 2014, published 2017)
